Source: ChEMBL document CHEMBL1142905, “1,4-Bis(alkylamino)benzo[g]phthalazines able to form dinuclear complexes of Cu(II) which as free ligands behave as SOD inhibitors and show efficient in vitro activity against Trypanosoma cruzi” (Bioorg Med Chem, 2007)
In brackets after ≈: the same amount, converted by molar mass.

Assays:
[1] = Toxicity against Vero cells after 72 hrs; format: cell-based; conditions: Chlorocebus sabaeus (African green monkey)
[2] = tested on: Trypanosoma cruzi; experiment: Inhibition of Fe-SOD in Trypanosoma cruzi Maracay at 10 ug/mL
[3] = tested on: Trypanosoma cruzi; experiment: Reduction of Trypanosoma cruzi Maracay amastigotes infection in Vero cells at 5 ug/Ml after 8 days relative to control; format: functional; set-up: scale not given: the % may be the effect or the level left
[4] = organism: Homo sapiens; experiment: Inhibition of Cu-Zn SOD in human erythrocytes at 10 ug/mL; format: cell-based
[5] = tested on: Trypanosoma cruzi; experiment: Inhibition of Trypanosoma cruzi Maracay epimastigotes after 48 hrs; format: functional, organism-based
[6] = tested on: Trypanosoma cruzi; experiment: Reduction of Trypanosoma cruzi Maracay trypomastigote infection in Vero cells; format: functional; set-up: scale not given: the % may be the effect or the level left
[7] = tested on: Trypanosoma cruzi; experiment: Inhibition of Trypanosoma cruzi Maracay epimastigotes after 72 hrs; format: functional, organism-based
[8] = tested on: Trypanosoma cruzi; experiment: Inhibition of Fe-SOD in Trypanosoma cruzi Maracay at 1 ug/mL
[9] = organism: Homo sapiens; experiment: Inhibition of Cu-Zn SOD in human erythrocytes at 1 ug/mL; format: cell-based
[10] = tested on: Trypanosoma cruzi; experiment: Inhibition of rate of infection with Trypanosoma cruzi Maracay metacyclic form in Vero cells at 5 ug/mL after 8 days; format: functional; conditions: 192 h
[11] = organism: Homo sapiens; experiment: Inhibition of Cu-Zn SOD in human erythrocytes at 25 ug/mL; format: cell-based
[12] = tested on: Trypanosoma cruzi; experiment: Inhibition of Fe-SOD in Trypanosoma cruzi Maracay at 25 ug/mL
[13] = tested on: Trypanosoma cruzi; experiment: Inhibition of Trypanosoma cruzi Maracay epimastigotes after 24 hrs; format: functional, organism-based
[14] = tested on: Trypanosoma cruzi; experiment: Inhibition of rate of infection with Trypanosoma cruzi Maracay metacyclic form in Vero cells at 5 ug/mL after 2 days; format: functional; set-up: scale not given: the % may be the effect or the level left

O=C(Cn1ccnc1[N+](=O)[O-])NCc1ccccc1 [BENZNIDAZOLE]
IC50 at 72 h [1]: 3.53 µg/mL (≈ 13.6 µM)

NCCOCCNc1nnc(NCCOCCN)c2cc3ccccc3cc12
inhibition [2]: 73% | Activity [3]: 43% | inhibition [4]: 11% | IC50 [5]: 15.6 µg/mL (≈ 40.6 µM) | IC50 at 72 h [1]: 67.3 µg/mL (≈ 175 µM) | Activity [6]: 65% | IC50 [7]: 12 µg/mL (≈ 31.3 µM) | inhibition [8]: 48% | inhibition [9]: 0% | inhibition at 5 µg/mL [10]: 57% | inhibition [11]: 17% | inhibition [12]: 100%

OCCOCCNc1nnc(NCCOCCO)c2cc3ccccc3cc12
inhibition [2]: 34% | inhibition [4]: 0% | IC50 [5]: 62.6 µg/mL (≈ 162 µM) | IC50 at 72 h [1]: 93.5 µg/mL (≈ 242 µM) | IC50 [7]: 30.6 µg/mL (≈ 79.2 µM) | inhibition [8]: 27% | IC50 [13]: 75.4 µg/mL (≈ 195 µM) | inhibition [9]: 0% | inhibition [11]: 0% | inhibition [12]: 53%

c1ccc(COCCCNc2nnc(NCCCOCc3ccccn3)c3cc4ccccc4cc23)nc1
inhibition [2]: 68% | Activity [3]: 44% | inhibition [4]: 7% | IC50 [5]: 12.8 µg/mL (≈ 25.3 µM) | IC50 at 72 h [1]: 6.25 µg/mL (≈ 12.3 µM) | Activity [6]: 74% | IC50 [7]: 3.25 µg/mL (≈ 6.39 µM) | inhibition [8]: 64% | IC50 [13]: 56.8 µg/mL (≈ 112 µM) | inhibition [9]: 0% | Activity [14]: 35% | inhibition at 5 µg/mL [10]: 68% | inhibition [11]: 11% | inhibition [12]: 75%
